Experiment [1] addresses T1, σ2-receptor (Rattus norvegicus, UniProt Q5U3Y7).
T1 construct: the σ2-Receptorpreparation was prepared from rat liver; from tissue; host or cells: rat liver membrane homogenate
T1 sequence (Q5U3Y7 1-176): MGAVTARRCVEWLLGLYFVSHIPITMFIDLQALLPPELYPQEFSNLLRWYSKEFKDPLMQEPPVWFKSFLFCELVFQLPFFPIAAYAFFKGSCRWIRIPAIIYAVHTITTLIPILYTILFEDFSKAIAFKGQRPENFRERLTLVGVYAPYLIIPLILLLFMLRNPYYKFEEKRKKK
Put plainly: Sigma 2 (Version B) radioligand binding, [3H]-ditolylguanidine, rat liver preparation, σ1 sites masked with (+)-pentazocine. The conditions noted are these: for Ki: [3H]-ditolylguanidine 3 nM. How it is done: In brief the σ2-Receptorpreparation was prepared from rat liver. The livers were homogenized in 5 to 6 times of volume sucrose solution (0.32M) and homogenized. The homogenate was centrifuged at 2900 rpm, 4° C., 10 min). the supernatant was centrifuged again (31000×g, 4° C., 20 min). The pellet was resuspended in TRIS-buffer, incubated for 30 min at room temperature while stirring and centrifuged f (31000×g, 4° C., 20 min). The pellet was resuspended in cold TRIS-buffer pH 8 and homogenized. Then the protein content was measured (approx. 2 mg/mL) and the homogenate frozen at −80° C. for later use.
The radioligand used was [^3H]-Ditolylguanidin in TRIS-buffer pH 8. The σ1-receptor binding sites were masked through (+)-Pentazocin-solution in TRIS-Puffer pH 8.
In a volume of 200 μL 50 μL compound solution of varying concentration, 50 μL (+)-Pentazocin-solution (2 μM; resulting in 500 nM in the assay), 50 μL radioligand-solution (12 nM; resulting in 3 nM in the assay) and finally 50 μL of receptor preparation (approx. 2 mg/mL) were given into a well of a microplate equipped with a filter. The plate was closed and stirred for 2 h at room temperature and 500 rpm. Following that the solvents were removed by a harvester through the filter. After rinsing with H2O the filter was measured in a scintillation counter ([^3H]-protocol).

Experiment [2] has as its target T2, σ1-receptor (Cavia porcellus, UniProt Q60492). The experiment in a line: Sigma-1 (Version A) radioligand binding, [3H](+)-pentazocine, guinea pig brain membranes.
Description: Brain membrane preparation and binding assays for the σ1-receptor were performed as described (DeHaven-Hudkins et al., 1992) with some modifications. In brief, guinea pig brains were homogenized in 10 vols. […] The homogenate was centrifuged at 1000 g for 10 min at 4° C. and the supernatants collected and centrifuged again at 48000 g for 15 min at 4° C.
Each assay tube contained 10 μL of [^3H](+)-pentazocine (final concentration of 0.5 nM), 900 μL of the tissue suspension to a final assay volume of 1 mL and a final tissue concentration of approximately 30 mg tissue net weight/mL. […] All tubes were incubated at 37° C. for 150 min before termination of the reaction by rapid filtration over Schleicher & Schuell GF 3362 glass fibre filters [previously soaked in a solution of 0.5% polyethylenimine for at least 1 h]. […] Following addition of scintillation cocktail, the samples were allowed to equilibrate overnight. The amount of bound radioactivity was determined by liquid scintillation spectrometry using a Wallac Winspectral 1414 liquid scintillation counter.
Experiment [3] addresses T2, σ1-receptor. Put plainly: Sigma 1 (Version B) radioligand binding, [3H]-(+)-pentazocine, guinea pig brain preparation. The arrangement: the σ1-receptor preparation was prepared from guinea pig brain; from tissue; host or cells: guinea pig brain membrane homogenate. How it is done:
In brief the σ1-receptor preparation was prepared from guinea pig brain. The brains were homogenized in 5 to 6 times of volume sucrose solution (0.32M) and homogenized. The homogenate was centrifuged at 2900 rpm, 4° C., 10 min). the supernatant was centrifuged again (23500×g, 4° C., 20 min). The pellet was resuspended in Tris-buffer, incubated for 30 min at room temperature and centrifuged f (23500×g, 4° C., 20 min). The pellet was resuspended in cold TRIS-buffer and homogenized. Then the protein content was measured (approx. 1.5 mg/mL) and the homogenate frozen at −80° C. for later use.
The radioligand used was […]-(+)-Pentazocin in TRIS-buffer. In a volume of 200 μL 50 μL TRIS-buffer, 50 μL compound solution of varying concentration, 50 μL radioligand-solution (8 nM; resulting in 2 nM in the assay) and finally 50 μL of receptor preparation (approx. 1.5 mg/mL) were given into a well of a microplate equipped with a filter. The plate was closed and stirred for 2.5 h at 37° C. and 500 rpm. Following that the solvents were removed by a harvester through the filter. After rinsing with H2O the filter was measured in a scintillation counter ([^3H]-protocol).

We go through 10 compounds from patent publication US20100197714A1, “SPIRO-PYRANO-PYRAZOLE DERIVATIVES” (priority 2007, published 2010).

T2 sequence (Q60492 whole entry): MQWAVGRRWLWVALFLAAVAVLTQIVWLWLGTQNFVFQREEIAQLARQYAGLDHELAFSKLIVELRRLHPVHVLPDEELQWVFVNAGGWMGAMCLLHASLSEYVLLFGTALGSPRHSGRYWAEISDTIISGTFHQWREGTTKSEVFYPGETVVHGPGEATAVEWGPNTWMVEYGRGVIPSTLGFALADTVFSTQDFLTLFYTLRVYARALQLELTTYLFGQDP

Consider `COC1Cc2c(cnn2-c2ccccc2)C2(CCN(CCC(C)C)CC2)O1` (stereo not shown) [Example 12, 1-Isopentyl-6′-methoxy-1′-phenyl-6′,7′-dihydro-1′H-spiro[piperidin-4,4′-pyrano[4,3-c]pyrazole]], for which the inhibitory constant (Ki) is 316 nM in experiment [1], 2.5 nM in experiment [2] and 0.97 nM in experiment [3].

Consider `CCCCN1CCC2(CC1)OC(OC)c1c2cnn1-c1ccccc1` (stereo not shown) [Example 4, 1-Butyl-6′-methoxy-1′-phenyl-4′,6′-dihydro-1′H-spiro[piperidin-4,4′-furo[3,4-c]pyrazole]], for which the inhibitory constant (Ki) in experiment [1] is 1050 nM; in experiment [2] it was 1.2 nM; in experiment [3] (version B, guinea pig brain, [3H]-(+)-pentazocine 2 nM, read-out: Binding σ1 Ki), 1.28 nM.

Turning to `COC1Cc2c(cnn2-c2ccccc2)C2(CCN(Cc3ccco3)CC2)O1` (stereo not shown) [Example 19, 1-(Furan-2-ylmethyl)-6′-methoxy-1′-phenyl-6′,7′-dihydro-1′H-spiro[piperidin-4,4′-pyrano[4,3-c]pyrazole]], the Ki in experiment [1] was 5220 nM; in experiment [2], 3.8 nM; in experiment [3] it was 2.21 nM.

Regarding `COC1OC2(CCN(Cc3ccccc3)CC2)c2cnn(-c3ccccc3)c21` (stereo not shown) [Example 3, 1-Benzyl-6′-methoxy-1′-phenyl-4′,6′-dihydro-1′H-spiro[piperidin-4,4′-furo[3,4-c]pyrazole]], the results for the inhibitory constant (Ki) in experiment [1] and in experiment [2] were 1750 nM and 2.7 nM, respectively.

In the case of `COC1Cc2c(cnn2-c2ccccc2)C2(CCN(CC3CCCCC3)CC2)O1` (stereo not shown) [Example 15, 1-(Cyclohexan-1-ylmethyl)-6′-methoxy-1′-phenyl-6′,7′-dihydro-1′H-spiro[piperidin-4,4′-pyrano[4,3-c]pyrazole]], the inhibition constant Ki in experiment [1] came to 109 nM; in experiment [2], 7.9 nM; in experiment [3], 0.55 nM.

For `COC1Cc2c(cnn2-c2ccccc2)C2(CCN(Cc3ccc(F)cc3)CC2)O1` (stereo not shown) [Example 21, 1-(4-Fluorbenzyl)-6′-methoxy-1′-phenyl-6′,7′-dihydro-1′H-spiro[piperidin-4,4′-pyrano[4,3-c]pyrazole]], the inhibition constant (Ki) came to 687 nM in experiment [1], 7.7 nM in experiment [2] and 0.94 nM in experiment [3].

For `COC1Cc2c(cnn2-c2ccccc2)C2(CCN(C(C)C)CC2)O1` (stereo not shown) [Example 8, 1-Isopropyl-6′-methoxy-1′-phenyl-6′,7′-dihydro-1′H-spiro[piperidin-4,4′ pyrano[4,3-c]pyrazole]], the inhibitory constant (Ki) is 3210 nM in experiment [1] and > 100 nM in experiment [2].

As for `COC1Cc2c(cnn2-c2ccccc2)C2(CCN(CCCCc3ccccc3)CC2)O1` (stereo not shown) [Example 18, 6′-Methoxy-1′-phenyl-1-(4-phenylbutyl)-6′,7′-dihydro-1′H-spiro[piperidin-4,4′-pyrano[4,3-c]pyrazole]], the Ki in experiment [1] came out at 428 nM; in experiment [2], 15.7 nM; in experiment [3] it was 3.22 nM.

Regarding `CCCCCCCCN1CCC2(CC1)OC(OC)Cc1c2cnn1-c1ccccc1` (stereo not shown) [Example 14, 6′-Methoxy-1-octyl-1′-phenyl-6′,7′-dihydro-1′H-spiro[piperidin-4,4′-pyrano[4,3-c]pyrazole]], the inhibition constant Ki in experiment [1] is 209 nM; in experiment [2], 41 nM; in experiment [3], 2.86 nM.

On to `COC1Cc2c(cnn2-c2ccccc2)C2(CCN(CC=C(C)C)CC2)O1` (stereo not shown) [Example 13, 6′-Methoxy-1-(3-methylbut-2-en-1-yl)-1′-phenyl-6′,7′-dihydro-1′H-spiro[piperidin-4,4′ pyrano[4,3-c]pyrazole]], for which the inhibition at 1 µM in experiment [1] (compound at 1 μM) came to 3%. Moreover, the inhibitory constant (Ki) in experiment [2] was found to be 7.3 nM; in experiment [3] it was 1.64 nM.

As usually defined, the Ki is a dissociation constant, usually derived from enzyme kinetics or from competition with a known ligand. As usually defined, the inhibition is the drop in the measured response relative to a control, in per cent. High values mean a response far below the control, low ones a response near the control.
